The values below come from patent publication US5827896A, “Pinitol and derivatives thereof for the treatment of metabolic disorders” (priority 1996, dated 1998).

The subject of series [1] is plasma glucose. To be noted: stated as basis for use as control; cited from earlier work.
Series [2] relates to plasma insulin. The series can be described thus: plasma insulin during oral glucose tolerance test (RIA) in non-insulin-dependent Type II diabetics (Example 3). In kind it is in vivo, human. Here is the method:
(§1) Five non-insulin-dependent diabetic subjects were studied on two occasions one week apart. For three days the subjects received pinitol 4.15 mg/kg/day orally in a drink once daily for 3 days. The preparation also contained 0.85 mg/kg/day D-chiro-inositol in other forms. The total inositol content by weight (including pinitol) was 22.5%. On the fourth day they took no morning dose of oral hypoglycemic agents and reported to the Clinical Research Center. Baseline blood samples were taken at -90 and -60 minutes, and at -60 minutes a dose of pinitol identical to that taken during the previous 3 days was given orally. The material contained less than 5 calories. At zero time 75 g glucose was given to begin a glucose tolerance test and blood samples were taken half-hourly for 3 hours. In random order the subjects received either myo-inositol (5 mg/kg/day) or soy pinitol (total inositol content 5 mg/kg/day). […] Plasma inositol levels were measured by gas chromatography/mass spectrometry and insulin levels were measured by RIA.

The subject of series [3] is plasma insulin. To be noted: stated as basis for use as control; cited from earlier work.
A further series can be described thus: clinical. To be noted: in vivo. As for the experimental part:
as §1

In series [4] the test system is plasma glucose. The series can be described thus: plasma glucose during oral glucose tolerance test in non-insulin-dependent Type II diabetics (Example 3). In kind it is in vivo, human. An excerpt:
The material contained less than 5 calories.

Series [5] in a line: acid hydrolysis of pinitol to D-chiro-inositol in 6N HCl. In kind it is physicochemical. To be noted: 24 hr at 110° in 6N HCl. As for the experimental part:
The highly standardized components of Purina Rodent Chow 5001 were analyzed by gas chromatography-mass spectrometry after hydrolysis in 6N HCI at 110° for 24 hr. to convert the pinitol to D-chiro-inositol and the results are presented in Table I below:
In contrast to other ether linkages it is not necessary to use concentrated hydrogen iodide to convert pinitol to D-chiro-inositol as detailed in U.S. Pat. No. 5,091,596.

The next series has as its system plasma free fatty acids. The series can be described thus: fasting plasma free fatty acids in NIDDM patients, placebo-controlled crossover (Example 5). To be noted: 5 days. Type of series: in vivo, human. As for the experimental part: (§2) 10 non-insulin-dependent diabetes patients maintained a pinitol and D-chiro-inositol-deficient diet (no legumes, or citrus fruits) throughout the study. […] The following table summarizes the characteristics of the patients.
(§3) Each subject received both placebo and soy-derived pinitol in separate tests. After an initial 5-day washout period the subjects received 5 days of treatment with either pinitol 5 mg/kg BID (total dose 10 mg/kg/day) or placebo without inositols. The material was given orally in 60 ml. calorie-free KOOL-AID drink.
(§4) Twelve hours after the last dose, two fasting plasma samples were drawn from each subject 15 minutes apart. Plasma free fatty acid levels were measured. A dose of pinitol was then given and a 3-hour glucose tolerance test was performed.
(§5) After a second 5-day washout period and another 5 days of pinitol or placebo feeding the testing was repeated. The order of treatment (pinitol or lacebo) was randomized and study investigatyors and those conducting the analyses were blinded to the order of treatment given.

Series [6] can be described thus: fasting plasma pinitol and chiro-inositol levels in NIDDM patients (Example 5). Type of series: in vivo, human. Here is the method: as §2, §3, §4, §5
[7] abbreviates: before glucose, during pinitol treatment.
The mark [8] stands for this setting: compared to the pinitol-deficient diet.

SMILES strings stand for the structures. Several values for one entry are separate records, joined by “and”; a condition that tells them apart may be missing. Equal entries are not always repeated.

Turning to `O[C@H]1[C@H](O)[C@@H](O)[C@H](O)[C@@H](O)[C@H]1O` [myo-Inositol, myo-inositol, reference compound], the “effect on plasma glucose” value in the series with plasma glucose [1] is on record as “no definite effect”. Moreover, the “Insulin Area, myo-Inositol” value in the series with plasma insulin [2] (75 g glucose tolerance test, 3 hours, myo-inositol 5 mg/kg/day (control), one value per subject (1-5)) was 18066 μU/ml × minutes and 4599 μU/ml × minutes and 2253 μU/ml × minutes and 2256 μU/ml × minutes and 1191 μU/ml × minutes. In addition, in the series on plasma insulin [3], the “effect on plasma insulin” value is “no definite effect”.

With `CO[C@H]1[C@H](O)[C@@H](O)[C@@H](O)[C@H](O)[C@@H]1O` [Pinitol, 3-O-methyl-D-chiro-inositol], the “plasma D-chiro-inositol reached” value in the series “clinical” (human, 240 min) is 1.7 µM. The same compound gave a Cmax at 3 h in “clinical” (human, po, 4.15 mg/kg/day) of 5400 nM. The “time of peak plasma pinitol after oral administration” value in “clinical” (po) is given as “three”. Also, the baseline glucose levels entry in the series with plasma glucose [4] (setting [7]) is on record as “unchanged”. Further, in the series on plasma glucose [4] (pinitol vs myo-inositol, five subjects, p=0.11), the “reduction in plasma glucose area (mg/dl×minutes) during the glucose tolerance test” value is 18.8±9.1%. Besides, the “conversion to D-chiro-inositol on acid hydrolysis” value in series [5] was “quantitatively converted to D-chiro-inositol”. The “Fasting plasma free fatty acids” value in the series on plasma free fatty acids (pinitol 5 mg/kg BID (10 mg/kg/day) orally, twelve hours after last dose, Mean ± SD, placebo 648 ± 244, P 0.05) was found to be 569 ± 276 µM. The “reduction in mean fasting plasma free fatty acids” value in the series with plasma free fatty acids (pinitol 5 mg/kg BID, vs placebo, p=0.05 by paired t-test) came to 12.2%. The “Insulin Area, Pinitol” value with plasma insulin [2] (75 g glucose tolerance test, 3 hours, soy pinitol (total inositol 5 mg/kg/day orally), one value per subject (1-5)) was 8844 μU/ml × minutes and 4032 μU/ml × minutes and 1518 μU/ml × minutes and 1566 μU/ml × minutes and 1197 μU/ml × minutes. Moreover, the baseline insulin levels result in the series on plasma insulin [2] (setting [7]) was “unchanged”. Moreover, in the series with plasma insulin [2] (pinitol vs myo-inositol, five subjects, p=0.046), the “reduction of insulin area during the glucose tolerance test” value worked out at 25.2±8.9%. Moreover, the “Insulin Area, Percent Change (Reduction)” value in the series with plasma insulin [2] (pinitol vs myo-inositol, one value per subject (1-5)) was 51.1% and 12.3% and 32.6% and 30.6% and 0.5%. Further, in series [6] (setting [8]), the “plasma chiro-inositol on pinitol feeding” value is on record as “increased substantially” and the “plasma pinitol on pinitol feeding” value is “increased substantially”. Besides, in series [6] (human, plasma, po, pinitol 5 mg/kg BID orally, 5 days, twelve hours after last dose, Mean ± SD, placebo 0.014 ± 0.012, P <0.0001), the concentration at 12 h stood at 488 ± 290 nM.

Broadly, the Cmax is the peak of the concentration-time curve.
